Molecular target: T1, hM5 (human Muscarinic receptor subtype 5) (Homo sapiens, UniProt P08912)
T1 construct: expressed in transfected cells; host or cells: CHO cells (ATCC)
T1 sequence (P08912 1-532): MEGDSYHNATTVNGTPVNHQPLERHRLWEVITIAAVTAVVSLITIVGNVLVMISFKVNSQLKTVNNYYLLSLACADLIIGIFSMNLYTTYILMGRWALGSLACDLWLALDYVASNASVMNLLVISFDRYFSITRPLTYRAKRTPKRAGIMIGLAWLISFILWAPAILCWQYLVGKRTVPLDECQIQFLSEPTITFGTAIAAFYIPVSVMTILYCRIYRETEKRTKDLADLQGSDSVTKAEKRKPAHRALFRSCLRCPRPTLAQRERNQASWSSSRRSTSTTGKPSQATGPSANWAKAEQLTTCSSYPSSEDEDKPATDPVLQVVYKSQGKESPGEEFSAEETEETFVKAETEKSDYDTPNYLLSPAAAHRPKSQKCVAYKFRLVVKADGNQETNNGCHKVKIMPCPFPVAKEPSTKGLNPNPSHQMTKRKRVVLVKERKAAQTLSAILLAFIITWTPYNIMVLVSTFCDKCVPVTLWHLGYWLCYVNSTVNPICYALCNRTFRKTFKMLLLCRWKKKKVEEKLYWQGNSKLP
Experiment: Human M5 calcium mobilization FLIPR assay
Format: cell-based
Settings: hM5 expressed in CHO cells, intracellular Ca2+ release (FLIPR)
Protocol: Human M1, rat M1, Human M3 and Human M5 Calcium Mobilization FLIPR™ Assay The compound activity in the present invention (EC50 or IC50) is measured using a 384 plate-based imaging assay that monitors drug induced intracellular Ca^2+ release in whole cells. Activation of hM1 (human Muscarinic receptor subtype 1, gene bank access NM_000738), rM1 (rat Muscarinic receptor subtype 1, gene bank access NM_080773), hM3 (human Muscarinic receptor subtype 3, gene bank access NM_000740NM_000740) and hM5 (human Muscarinic receptor subtype 5, gene bank access NM_0121258), receptors expressed in CHO cells (Chinese hamster ovary cells, ATCC) is quantified in a Molecular Devices FLIPR IITM instrument as an increase in fluorescent signal. Inhibition of hM3 and hM5 by compounds is determined by the decrease in fluorescent signal in response to 2 nM acetylcholine activation. […] Prior to experiment, the cell culture medium is removed from the plates by inversion. […] Plates are incubated at 37° C. for 60 minutes prior to start the experiment. The incubation is terminated by washing the cells four times in assay buffer, leaving a residual 25 μl buffer per well. Cell plates are then transferred to the FLIPR, ready for compound additions. The day of experiment, acetylcholine and compounds are diluted in assay buffer in three-fold concentration range (10 points serial dilution) for addition by FLIPR instrument. For all calcium assays, a baseline reading is taken for 10 seconds followed by the addition of 12.5 μl of compounds, resulting in a total well volume of 37.5 μl. Data is collected every second for 60 pictures and then every 6 seconds for 20 pictures prior to the addition of agonist. For hM3 and hM5, before agonist addition, a second baseline reading is taken for 10 seconds followed by the addition of 12.5 μl of agonist or buffer, producing a final volume of 50 μl. After agonist stimulation, the FLIPR continues to collect data every second for 60 pictures and then every 6 seconds for 20 pictures. The fluorescence emission is read using filter 1 (emission 510-570 nm) by the FLIPR on board CCD camera. Calcium mobilization output data are calculated as the maximal relative fluorescence unit (RFU) minus the minimal value for both compound and agonist reading frame (except for hM1 and rM1 using only the maximal RFU). Data are analyzed using sigmoidal fits of a non-linear curve-fitting program (XLfit version 4.2.2 Excel add-in version 4.2.2 build 18 math 1Q version 2.1.2 build 18). All pEC50 and pIC50 values are reported as arithmetic means±standard error of mean of ‘n’ independent experiments.

Row | Structure (SMILES) | EC50 [µM]
1 | CCOCC1CCC(N2CCC(N3C(=O)NC[C@H]4CCCC[C@@H]43)CC2)CC1 (mixture of isomers) [Example 08, (4aR,8aS)-1-(1-(4-(ethoxymethyl)cyclohexyl)piperidin-4-yl)octahydroquinazolin-2(1H)-one] | 0.069
2 | CC(C)OCC1CCC(N2CCC(N3C(=O)CO[C@H]4CCCC[C@@H]43)CC2)CC1 (mixture of isomers) [Example 15, (4aS,8aS)-4-(1-(4-(isopropoxymethyl)cyclohexyl)piperidin-4-yl)hexahydro-2H-benzo[b][1,4]oxazin-3(4H)-one] | > 40
3 | CC(C)OCC1CCC(N2CCC(N3C(=O)NC[C@H]4CCCC[C@@H]43)CC2)CC1 (single isomer, unassigned) [Example 04] | > 40
4 | CCOCC1CCC(N2CCC(N3C(=O)CO[C@H]4CCCC[C@@H]43)CC2)CC1 (single isomer, unassigned) [Example 13] | > 40
5 | CCOCC1CCC(N2CCC(N3C(=O)CO[C@H]4CCCC[C@@H]43)CC2)CC1 (single isomer, unassigned) [Example 14] | > 40
6 | CC(C)OCC1CCC(N2CCC(N3C(=O)CO[C@H]4CCCC[C@@H]43)CC2)CC1 (single isomer, unassigned) [Example 19] | > 40
7 | O=C1CO[C@H]2CCCC[C@@H]2N1C1CCN(C2CCC(COCCF)CC2)CC1 (single isomer, unassigned) [Example 24] | > 40
8 | O=C1CO[C@H]2CCCC[C@@H]2N1C1CCN(C2CCC(COCCF)CC2)CC1 (single isomer, unassigned) [Example 25] | > 40
9 | O=C1CO[C@H]2CCCC[C@@H]2N1C1CCN(C2CCC(COCC(F)F)CC2)CC1 (single isomer, unassigned) [Example 27] | > 40
10 | CCOCC1CC(N2CCC(N3C(=O)CO[C@H]4CCCC[C@@H]43)CC2)C1 (single isomer, unassigned) [Example 39] | > 40
11 | CCOCC1CCC(N2CCC(N3C(=O)CO[C@H]4CCCC[C@@H]43)CC2)C1 (single isomer, unassigned) [Example 44] | 2.92
12 | CCOCC1CCC(N2CCC(N3C(=O)CO[C@H]4CCCC[C@@H]43)CC2)C1 (single isomer, unassigned) [Example 45] | > 40
13 | O=C1COC2CCCC2N1C1CCN([C@H]2CC[C@@H](COCC3CC3)CC2)CC1 (single isomer, unassigned) [Example 48] | > 40
14 | O=C1NC[C@H]2CCCC[C@@H]2N1C1CCN(C2CCC(COCC(F)F)CC2)CC1 (single isomer, unassigned) [Example 51] | > 15.7
15 | CCOC[C@H]1CC[C@@H](N2CCC(N3C(=O)CO[C@H]4CCCC[C@@H]43)CC2)C1 [Example 42, (4aS,8aS)-4-(1-((1R,3S)-3-(ethoxymethyl)cyclopentyl)piperidin-4-yl)hexahydro-2H-benzo[b][1,4]oxazin-3(4H)-one] | > 4.22

The remaining lines, values ahead:

Row | EC50 [µM] | Structure (SMILES)
16 | > 40 | CCCOCC1CCC(N2CCC(N3C(=O)NC[C@H]4CCCC[C@@H]43)CC2)CC1 (single isomer, unassigned) [Example 01]
17 | > 2.77 | CCCOCC1CCC(N2CCC(N3C(=O)NC[C@H]4CCCC[C@@H]43)CC2)CC1 (single isomer, unassigned) [Example 02]
18 | > 40 | CC(C)OCC1CCC(N2CCC(N3C(=O)CO[C@H]4CCCC[C@@H]43)CC2)CC1 (single isomer, unassigned) [Example 18]
19 | > 40 | O=C1CO[C@H]2CCCC[C@@H]2N1C1CCN(C2CCC(COCC(F)F)CC2)CC1 (single isomer, unassigned) [Example 26]
20 | > 40 | CC(C)OCC1CCC(N2CCC(N3C(=O)CO[C@H]4CCC(F)(F)C[C@@H]43)CC2)CC1 (single isomer, unassigned) [Example 37]
21 | > 40 | CC(C)OCC1CCC(N2CCC(N3C(=O)CO[C@H]4CCC(F)(F)C[C@@H]43)CC2)CC1 (single isomer, unassigned) [Example 38]
22 | > 40 | CCOC[C@@H]1CC[C@H](N2CCC(N3C(=O)CO[C@H]4CCCC[C@@H]43)CC2)C1 [Example 43, (4aS,8aS)-4-(1-((1S,3R)-3-(ethoxymethyl)cyclopentyl)piperidin-4-yl)hexahydro-2H-benzo[b][1,4]oxazin-3(4H)-one]

Source: patent US20090275574A1, “NOVEL COMPOUNDS-300” (ASTRAZENECA AB, priority 2008, published 2009)
